# Data published in article PMC4679714, “Influence of a novel, versatile bifunctional chelator on theranostic properties of a minigastrin analogue” (EJNMMI Research, 2015).
# Square brackets hold non-standard residues; d marks the D form. Peptide text beside a SMILES is read from it. * marks the point of attachment. X1 = O=C(O)CN1CCN(CC(=O)O)CC(CCCCCCCCCC(=O)*)(N(CC(=O)O)CC(=O)O)C1
# Experiments:
# [1] = design: method as in doi:10.1002/ejic.201201108; settings: cited from earlier work
# human CCK2 receptor = target: T1, human CCK2 receptor (Homo sapiens, UniProt P32239); test: Receptor binding affinity (IC50), displacement of 177Lu-labelled CP04 from CCK2+ cell membranes; settings: radioligand 177Lu-labelled CP04, 1 h at 37 °C
# T1 construct: expressed in transfected cells; host or cells: A431-309CCK2R (A431 cells transfected with CCK2R); membranes released by hypoosmotic lysis
# T1 sequence (P32239 1-447): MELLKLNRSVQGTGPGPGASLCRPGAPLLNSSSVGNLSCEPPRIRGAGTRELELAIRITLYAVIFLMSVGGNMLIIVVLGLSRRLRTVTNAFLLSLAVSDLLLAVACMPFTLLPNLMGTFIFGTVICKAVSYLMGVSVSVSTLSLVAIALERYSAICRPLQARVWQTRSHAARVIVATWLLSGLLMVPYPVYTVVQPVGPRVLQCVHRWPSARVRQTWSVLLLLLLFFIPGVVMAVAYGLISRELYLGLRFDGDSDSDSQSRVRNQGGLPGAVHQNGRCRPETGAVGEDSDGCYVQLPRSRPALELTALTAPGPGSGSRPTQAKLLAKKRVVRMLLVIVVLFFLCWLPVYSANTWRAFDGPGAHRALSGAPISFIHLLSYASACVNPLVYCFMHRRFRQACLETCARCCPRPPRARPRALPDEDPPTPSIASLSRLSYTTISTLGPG
# Protocol: A human transfected cell line was used with two different expression properties of the cholecystokinin (CCK) receptor: CCK2+ (A431-309CCK2R; receptor-positive cells) and CCK2− (A431-609; mock transfected control cells) cells.
# In vitro binding affinities of AAZTA-MG were determined by using CCK2+ cell membranes and ^177Lu-labelled CP04 (a minigastrin analogue with high affinity to the CCK2 receptor) as radioligand incubated with increasing concentrations of the competitor. As competitor AAZTA-MG and [^natLu]- and [^natGa]-AAZTA-MG were used. The latter were prepared by incubating 10 μg AAZTA-MG with a tenfold molar excess of Lu-chloride in ascorbic acid buffer and 100 μl Ga-bromide in sodium acetate buffer for 10 min, respectively.
# The 96-well plates (MulitScreen Filter Plates, HTS) were washed with 250 μL 10 mM TRIS buffered saline (pH 7.3). CCK2 cells were diluted in 20 mM HEPES buffer containing […] MgCl2—in this hypoosmotic solution the cells were cracked releasing free membranes.
Structure (SMILES),Stability constant (logK) for Ga^3+ [1],Stability constant (logK) for In^3+ [1],further results
"CC1(N(CC(=O)O)CC(=O)O)CN(CC(=O)O)CCN(CC(=O)O)C1 [AAZTA, 6-[Bis(carboxymethyl)amino]-1,4-bis(carboxymethyl)-6-methyl-1,4-diazepane]",22.18,29.58,–
"CSCC[C@H](NC(=O)[C@H](Cc1c[nH]c2ccccc12)NC(=O)CNC(=O)[C@H](Cc1ccc(O)cc1)NC(=O)[C@H](C)NC(=O)[C@@H](CCC(=O)O)NC(=O)CCCCCCCCCC1(N(CC(=O)O)CC(=O)O)CN(CC(=O)O)CCN(CC(=O)O)C1)C(=O)N[C@@H](CC(=O)O)C(=O)N[C@@H](Cc1ccccc1)C(N)=O [AAZTA-MG, [AAZTA^0, D-Glu^1, desGlu^2–6]-minigastrin] (X1-[dE]AYGWMDF-NH2)",–,–,IC50 (human CCK2 receptor): 10 nM
"CSCC[C@H](NC(=O)[C@H](Cc1c[nH]c2ccccc12)NC(=O)CNC(=O)[C@H](Cc1ccc(O)cc1)NC(=O)[C@H](C)NC(=O)[C@@H](CCC(=O)O)NC(=O)CCCCCCCCCC1(N(CC(=O)O)CC(=O)O)CN(CC(=O)O)CCN(CC(=O)O)C1)C(=O)N[C@@H](CC(=O)O)C(=O)N[C@@H](Cc1ccccc1)C(N)=O [[^natGa]AAZTA-MG, metal not drawn] (X1-[dE]AYGWMDF-NH2)",–,–,IC50 (human CCK2 receptor; listed as [^natGa]-AAZTA-MG): 8.18 ± 3.16 nM
"CSCC[C@H](NC(=O)[C@H](Cc1c[nH]c2ccccc12)NC(=O)CNC(=O)[C@H](Cc1ccc(O)cc1)NC(=O)[C@H](C)NC(=O)[C@@H](CCC(=O)O)NC(=O)CCCCCCCCCC1(N(CC(=O)O)CC(=O)O)CN(CC(=O)O)CCN(CC(=O)O)C1)C(=O)N[C@@H](CC(=O)O)C(=O)N[C@@H](Cc1ccccc1)C(N)=O [[^natLu]AAZTA-MG, metal not drawn] (X1-[dE]AYGWMDF-NH2)",–,–,IC50 (human CCK2 receptor; listed as [^natLu]): 9.44 ± 4.57 nM
"O=C(O)CN1CCN(CC(=O)O)CCN(CC(=O)O)CCN(CC(=O)O)CC1 [^68Ga-DOTA, 1,4,7,10-tetraazacyclododecane-1,4,7,10-tetraacetic acid, metal not drawn]",21.3,23.9,–
